Assay type in all cases: physicochemical
Series [1] in a line: Stability after exposure to light and temperature, by UPLC MS. The settings on record: powder form or solution; daylight, ambient temperature; compared with the salt. The method, then:
The products were exposed to daylight and to ambient temperature.
The reference samples for their part are stored cool (2°-8° C.), protected from light by aluminum paper and under inert gas for the solid product.

Series [2] can be described thus: Solubility test on the elafibranor (GFT505) metformin salt. The conditions noted are these: organic solvent or mixture, thermodynamic from solid, ambient temperature.
Series [3] can be described thus: Thermodynamic solubility of elafibranor in aqueous buffers and cosolvents. The settings on record: for solubility at 72 h / solubility at 24 h / solubility: 23 °C, thermodynamic from solid; for solubility at 72 h / solubility at 24 h: ambient temperature (22°-24° C.); for solubility at 72 h: read-out: Solubility after 72 hours; for solubility at 24 h: read-out: Solubility after 24 hours. The method, then:
The thermodynamic solubility of the basic elafibranor is studied over a period of 24 hours and 72 hours in various aqueous buffers in the presence or not of surfactants. Batch number EM0274L2 is used for this work. After 24 hours and 72 hours of incubation at ambient temperature (22°-24° C.), the solutions are sampled and then filtered over 0.2 μm polycarbonate filters in flasks for LCMS analyses, and diluting once in DMSO before stirring for 2 minutes (vortex or sonification).

Assay in series [4]: as above
The conditions noted are these: for solubility at 24 h: read-out: Solubility after 24 hours.

Series [5] can be described thus: Solubility test on the elafibranor (GFT505) metformin salt. The conditions noted are these: aqueous buffer, thermodynamic from solid. The method, then: The solubility kinetics is determined in an aqueous medium (water and pharmacopoeia buffers), at ambient temperature.
Setting [6] is: aqueous buffer, aqueous buffer, Buffer pH 4.6.
The mark [7] stands for this setting: aqueous buffer, aqueous buffer, Buffer pH 7.4.
Setting [8] is: aqueous buffer, aqueous buffer, Buffer pH 8.5.

Results on 1 compound are retold here after patent publication US20200023067A1, “DUAL-ACTION ELAFIBRANOR METFORMIN SALT FOR TREATING OBESITY ASSOCIATED WITH NON-ALCOHOLIC STEATOHEPATITIS (NASH) AND […]” (NASHPHARM, priority 2016, published 2020).

Values after ≈ are worked out from the molar mass of the structure shown. Values joined by “and” are separate entries in the source; they are usually repeats but may differ in a detail not shown here. Equal entries are not always repeated. Where two headings read alike, the source gives them in different places.

With `CSc1ccc(C(=O)/C=C/c2cc(C)c(OC(C)(C)C(=O)O)c(C)c2)cc1` [elafibranor, 2-[2,6 dimethyl-4-[3-[4-(methylthio)phenyl]-3-oxo-1(E)-propenyl]phenoxyl]-2-methylpropanoic acid], the “Sensitivity to light (photosensitivity)” value in series [1] is “more sensitive to light”. Besides, the solubility in series [2] (Polyethylene glycol 400) was 39000 µM and 15000 µg/mL; in series [2] (Propylene glycol), 33500 µM and 12900 µg/mL; in series [3] (aqueous buffer, pH 4.6, aqueous buffer), 114 µM (≈ 43.8 µg/mL); in series [3] (aqueous buffer, pH 8.5, aqueous buffer) it was 4420 µM (≈ 1700 µg/mL); in series [5] (Buffer pH 4.6, ambient temperature), 114 µM and 44 µg/mL; in series [5] (Buffer pH 7.4, ambient temperature), 504 µM and 194 µg/mL. For the same compound, the solubility in series [5] (Buffer pH 8.5, ambient temperature) is 4420 µM and 1700 µg/mL. Besides, the solubility at 72 h in series [3] (organic solvent or mixture, Propylene glycol) was 35100 µM and 13500 µg/mL; in series [3] (setting [6]) it was 110 µM and 42 µg/mL; in series [3] (setting [7]) it was 609 µM and 234 µg/mL; in series [3] (setting [8]), 4270 µM and 1640 µg/mL; in series [4] (23 °C, organic solvent or mixture, thermodynamic from solid, Polyethylene glycol 400, ambient temperature (22°-24° C.), read-out: Solubility after 72 hours) it was 41000 µM and 15800 µg/mL. Besides, the solubility at 24 h was 114 µM and 44 µg/mL in series [3] (setting [6]); 504 µM and 194 µg/mL in series [3] (setting [7]); 4420 µM and 1700 µg/mL in series [3] (setting [8]); 39000 µM and 15000 µg/mL in series [4] (23 °C, organic solvent or mixture, thermodynamic from solid, Polyethylene glycol 400, ambient temperature (22°-24° C.)); 33500 µM and 12900 µg/mL in series [4] (23 °C, organic solvent or mixture, thermodynamic from solid, Propylene glycol, ambient temperature (22°-24° C.)). The “Solubility in an aqueous medium” value in series [3] (aqueous medium) is “low”. The “Effect of cosolvent on solubility” value in series [4] (addition of cosolvent such as propylene glycol or PEG 400) is “significantly improves the solubility”.

By solubility is commonly meant the dissolved amount per volume that the medium holds.
